Test results taken from patent US20220257758A1, “METHODS OF ADMINISTERING ANTI-SIGLEC-8 ANTIBODIES AND CORTICOSTEROIDS” (priority 2019, published 2022).
“Also recorded” adds a separate entry of the source.

Assays:
Type in all cases: in vivo, human
[1] = system: eosinophils per HPF observed in GI biopsies; assay: Phase 2 study in EG and/or EGE: change in eosinophils per HPF in GI biopsies
Description: (§1) This study was a randomized, double-blind, placebo-controlled study. […] All patients reported an average weekly score of ≥3 (on a scale from 0-10), recorded for either abdominal pain, diarrhea and/or nausea on a Patient Reported Outcome (PRO) questionnaire during at least 2 out of 3 weeks of PRO collection. A minimum of four questionnaires were completed each qualifying week.
Further, all patients either failed or had disease symptoms not adequately controlled by standard-of-care treatments for EG/EGE symptoms, which could include proton pump inhibitors (PPIs), systemic or topical corticosteroids, and/or diet, among others.
In addition, each patient was confirmed to have EG and/or EGE by esophagogastroduodenoscopy (EGD), as defined by eosinophilia of the gastric mucosa ([…] eosinophils/HPF in 5 HPFs) and/or eosinophilia of the duodenal mucosa (30 eosinophils/HPF in 3 HPFs) from the EGD performed during the screening period, without any other cause for the gastric eosinophilia (e.g., parasitic or other infection or malignancy). For more details, see ClinicalTrials.gov Identifier NCT03496571.
(§2) 65 patients were enrolled in 3 arms. In the first arm, 22 patients received anti-Siglec-8 antibody (non-fucosylated IgG1 antibody HEKA) in the following doses: 0.3 mg/kg for first dose, and 1.0 mg/kg for second, third, and fourth doses (“low dose”). In the second arm, 22 patients received the anti-Siglec-8 antibody in the following doses: 0.3 mg/kg for first dose, 1.0 mg/kg for second dose, and 3.0 mg/kg for the third and fourth doses (“high dose”). Patients in the third arm received placebo. All doses were provided monthly.
The primary endpoint was the percentage of change in eosinophils per HPF observed in GI biopsies before and after receiving treatment or placebo. Mean percent change in eosinophil counts was calculated by comparing count at week 14 of treatment versus baseline count.

[2] = system: patients with eosinophilic gastritis (EG) and/or eosinophilic gastroenteritis (EGE); assay: Phase 2 study in EG and/or EGE: Total Symptom Score (TSS) from PRO questionnaire
Description: as §1, §2
(§3) Secondary endpoints included the percentage of responders to treatment and change in symptoms as reported by PRO questionnaire (both comparing week 13-14 vs. baseline), as well as an exploratory assessment of comorbid eosinophilic esophagitis (EoE). Symptoms reported by the PRO questionnaire included abdominal pain, nausea, diarrhea, vomiting, fullness before finishing a meal, loss of appetite, abdominal cramping, and bloating. Each of the 8 symptoms was measured on a scale from 0 to 10 (with 80 total points possible). This questionnaire captured the most significant symptoms of EG/EGE. Treatment responder was defined as >75% reduction in tissue biopsy eosinophil counts and >30% reduction in Total Symptom Score (TSS) from the PRO questionnaire at weeks 13-14. These endpoints were designed to show (1) tissue eosinophil depletion, (2) symptom improvement, and (3) that these effects occurred in the same individuals.

[3] = system: patients with eosinophilic gastritis (EG) and/or eosinophilic gastroenteritis (EGE); assay: Phase 2 study in EG and/or EGE: treatment responders
Protocol: as §2, §3

[4] = system: patients with eosinophilic esophagitis (EoE); assay: Phase 2 study: exploratory assessment of comorbid eosinophilic esophagitis (EoE)
Protocol: as §2
as §3, with “These endpoints were designed to show (1) tissue eosinophil depletion, (2) symptom improvement, and (3) that these effects occurred in the same individuals.” left out

[5] = system: patients with eosinophilic gastritis (EG) and/or eosinophilic gastroenteritis (EGE); assay: Phase 2 study in EG and/or EGE: safety and tolerability
Description: This Example describes results from a Phase 2 examining treatment of patients with eosinophilic gastritis (EG) and/or eosinophilic gastroenteritis (EGE) using a humanized, non-fucosylated IgG1 monoclonal anti-Siglec-8 antibody (HEKA). Specifically, this study evaluated the safety and tolerability of anti-Siglec-8 antibody in patients with EG and/or EGE.
as §2

[6] = system: patients with eosinophilic gastritis (EG) and/or eosinophilic gastroenteritis (EGE); assay: Phase 2 open-label extension study: infusion-related reactions with corticosteroid premedication; conditions: 58 patients to date; 80 mg oral prednisone 12-24 hours prior to first infusion, plus solumedrol, cetirizine, acetaminophen about 1 hour prior; 1 mg/kg first infusion then 3 mg/kg every 4 weeks
Protocol: Approximately 60 patients are enrolled in this extension study, based on the maximum enrollment from a Phase 2 study. Patients who complete the Phase 2 study have the option to receive anti-Siglec-8 antibody in an open-label fashion.
1 mg/kg anti-Siglec-8 antibody (non-fucosylated IgG1 antibody HEKA) is administered for the first infusion, followed by a dose of 3 mg/kg administered every 4 weeks thereafter. Patients receive up to 8 infusions of anti-Siglec-8 antibody administered every 28(±3) days.
Prior to the first infusion of AK002, 80 mg oral prednisone is given 12-24 hours prior to infusions and solumedrol (100 mg IV), cetirizine (10 mg oral), and acetaminophen (975-1000 mg oral) are given about 1 hour prior to infusion.
In this ongoing extension study, corticosteroid has been administered 12-24 hours prior to each of the first anti-Siglec-8 antibody dose (as described above).

Substance: anti-Siglec-8 antibody: humanized, non-fucosylated IgG1 monoclonal anti-Siglec-8 antibody (HEKA); VH SEQ ID NO: 6, VL SEQ ID NO: 16; heavy chain SEQ ID NO: 75, light chain SEQ ID NO: 76
- patients with gastric and duodenal eosinophil counts of <30/HPF ([1]; 37 out of 39 patients receiving antibody): 95%
- mean reduction in eosinophil count ([1]; both treatment groups, baseline to weeks 13-14, p-value <0.0001): 95%
- reduction in eosinophil count ([1]; high dose arm (0.3, 1.0, 3.0, 3.0 mg/kg monthly), baseline to weeks 13-14): 97%
- reduction in eosinophil count ([1]; low dose arm (0.3, 1.0, 1.0, 1.0 mg/kg monthly), baseline to weeks 13-14): 95%
- improvement across symptoms of the PRO questionnaire ([2]; 8 symptoms, baseline to end of treatment): improvement across all symptoms measured; also recorded: Improvements were observed across all symptoms
- mean reduction in TSS ([2]; both treatment groups, baseline to weeks 13-14, p-value 0.0012): 54%
- reduction in TSS ([2]; high dose arm, baseline to weeks 13-14): 58%
- reduction in TSS ([2]; low dose arm, baseline to weeks 13-14): 49%
- improvements in symptoms ([2]; on day 1 after the first infusion and maintained throughout the study): statistically significant improvements in symptoms
- percentage of responders ([3]; all treated patients, >75% reduction in tissue eosinophils and >30% reduction in TSS at weeks 13-14, p-value 0.0008): 69%
- percentage of responders ([3]; high dose arm, weeks 13-14): 70%
- percentage of responders ([3]; low dose arm, weeks 13-14): 68%
- improvement in dysphagia ([4]; patients with EoE): substantial improvement in dysphagia
- EoE patients showing <5 eosinophils per HPF ([4]; week 14 of treatment, 13 of 14 EoE patients): 93%
- other significant AEs ([5]; Phase 2 study): no other significant adverse events (AEs) were observed
- tolerability ([5]; Phase 2 study): generally well tolerated
- IRRs that were mild to moderate ([5]; e.g. flushing, feeling of warmth, headache, nausea, dizziness): 95%
- patients with at least 1 treatment-emergent adverse event (AE) ([5]; patients receiving antibody): 91%
- drug-related serious AE (number) ([5]; was an IRR, patient recovered within 24 hours with no further sequelae): One
- IRRs observed [6]: no IRRs have been observed
